Test results published in PMC4139006 (Pediatric blood & cancer, 2013).
Like-named read-outs stand apart in the source and are kept apart here.

Key:
clinical = details: human, in vivo, po
[1] = human, in vivo
Phase I dose escalation = type: in vivo, children; details: oral, days 1–5 every 28 days, VOR about one hour before TEM
medulloblastoma/PNETs = details: of 25 evaluable patients with medulloblastoma/PNETs; cited from earlier work
low-grade glioma = details: single-agent temozolomide, cited from earlier work
[2] = systemically administered; cited from earlier work
[3] = given continuously as a single daily dose; pediatric; cited from earlier work

O=C(O)CCC(=O)Nc1ccccc1 [4-anilino-4-oxobutanoic acid, 4-anilino-4-oxobutanoic acid]
AUC(0-inf) (clinical; 230 mg/m2, AUC0-∞): 6900 ng·h/mL
Cmax (clinical; 230 mg/m2, Cmax): 490 ng/mL
half-life (clinical; 230 mg/m2, Half-life): 10.4 h
Tmax (clinical; 230 mg/m2, Tmax): 3 h
AUC(0-inf) (clinical; 300 mg/m2, AUC0-∞): 7490 ng·h/mL
Cmax (clinical; 300 mg/m2, Cmax): 750 ng/mL
half-life (clinical; 300 mg/m2, Half-life): 9.18 h
Tmax (clinical; 300 mg/m2, Tmax): 4 h
AUC0-∞ ([1]; po, 300 mg/m2): 9590 (7150 – 16600) ng/ml*hr
Cmax ([1]; po, 300 mg/m2): 814 (588 – 832) ng/ml
Tmax ([1]; po, 300 mg/m2): 2.00 (0.88 – 6.00) hrs
half-life ([1]; po, 300 mg/m2): 9.19 (6.49 – 11.6) hrs

Cn1nnc2c(C(N)=O)ncn2c1=O [TEM, Temozolomide]
pediatric MTD and recommended phase II dosing for the combination of VOR and TEM (Phase I dose escalation): 150 mg/m^2/day
complete or partial responses, patients (medulloblastoma/PNETs): 4
patients having prolonged stable disease (low-grade glioma; adults): 30%
response rates (low-grade glioma; adults): 50–60%
median progression-free survival (PFS) (low-grade glioma): 22–28 months

O=C(CCCCCCC(=O)Nc1ccccc1)NO [VOR, suberoylanilide hydroxamic acid]
pediatric MTD and recommended phase II dosing for the combination of VOR and TEM (Phase I dose escalation): 300 mg/m^2/day
half-life (clinical; 230 mg/m2, Half-life): 2.61 h
AUC(0-inf) (clinical; 300 mg/m2, AUC0-∞): 1790 ng·h/mL
Cmax (clinical; 300 mg/m2, Cmax): 422 ng/mL
half-life (clinical; 300 mg/m2, Half-life): 2.62 h
time to maximum concentration [1]: 2 h
Cmax ([1]; po, 230 mg/m2): 390 (221 – 655) ng/ml
Cmax ([1]; po, 300 mg/m2): 578 (200 – 821) ng/ml
half-life ([1]; po, 300 mg/m2): 2.80 (2.23 – 5.90) hrs
blood brain barrier crossing [2]: crosses the blood brain barrier
MTD of single-agent oral VOR [3]: 230 mg/m^2/day
